Active and inactive are the calls of the source.
Columns and labels:
[1] = target: Voltage-dependent T-type calcium channel subunit alpha-1H (Homo sapiens, UniProt O95180); assay: human CACNA1H calcium influx blockade – cell-based, synthetic library set 1, calcium flux (AID 493022); format: functional
[2] = target: G-protein coupled receptor 55 (Homo sapiens, UniProt Q9Y2T6); assay: selective activators of receptor GPR55 – imaging, U2OS cells, beta-arrestin-GFP redistribution, primary screen (AID 1961); format: functional
Chain of G-protein coupled receptor 55 (Q9Y2T6 whole entry): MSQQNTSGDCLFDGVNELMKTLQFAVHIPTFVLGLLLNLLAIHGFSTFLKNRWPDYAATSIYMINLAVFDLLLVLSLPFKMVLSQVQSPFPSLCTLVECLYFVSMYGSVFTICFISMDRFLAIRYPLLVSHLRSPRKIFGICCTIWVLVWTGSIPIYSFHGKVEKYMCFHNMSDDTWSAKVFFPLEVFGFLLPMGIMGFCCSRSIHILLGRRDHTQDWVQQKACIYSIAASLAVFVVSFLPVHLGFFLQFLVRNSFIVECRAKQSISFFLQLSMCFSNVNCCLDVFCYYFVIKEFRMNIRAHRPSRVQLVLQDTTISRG

Saccharomyces cerevisiae = assay: S. cerevisiae Caspase-1/ASC signal blockers IC50, NALP1 inhibitor project selectivity test (AID 488863); format: functional, organism-based
[3] = target: NACHT, LRR and PYD domains-containing protein 1 (Homo sapiens, UniProt Q9C000); assay: NALP1 inhibitors in yeast, dose response, luminescent (AID 488860); format: functional
Chain of NACHT, LRR and PYD domains-containing protein 1 (Q9C000 1-1212 limits assumed): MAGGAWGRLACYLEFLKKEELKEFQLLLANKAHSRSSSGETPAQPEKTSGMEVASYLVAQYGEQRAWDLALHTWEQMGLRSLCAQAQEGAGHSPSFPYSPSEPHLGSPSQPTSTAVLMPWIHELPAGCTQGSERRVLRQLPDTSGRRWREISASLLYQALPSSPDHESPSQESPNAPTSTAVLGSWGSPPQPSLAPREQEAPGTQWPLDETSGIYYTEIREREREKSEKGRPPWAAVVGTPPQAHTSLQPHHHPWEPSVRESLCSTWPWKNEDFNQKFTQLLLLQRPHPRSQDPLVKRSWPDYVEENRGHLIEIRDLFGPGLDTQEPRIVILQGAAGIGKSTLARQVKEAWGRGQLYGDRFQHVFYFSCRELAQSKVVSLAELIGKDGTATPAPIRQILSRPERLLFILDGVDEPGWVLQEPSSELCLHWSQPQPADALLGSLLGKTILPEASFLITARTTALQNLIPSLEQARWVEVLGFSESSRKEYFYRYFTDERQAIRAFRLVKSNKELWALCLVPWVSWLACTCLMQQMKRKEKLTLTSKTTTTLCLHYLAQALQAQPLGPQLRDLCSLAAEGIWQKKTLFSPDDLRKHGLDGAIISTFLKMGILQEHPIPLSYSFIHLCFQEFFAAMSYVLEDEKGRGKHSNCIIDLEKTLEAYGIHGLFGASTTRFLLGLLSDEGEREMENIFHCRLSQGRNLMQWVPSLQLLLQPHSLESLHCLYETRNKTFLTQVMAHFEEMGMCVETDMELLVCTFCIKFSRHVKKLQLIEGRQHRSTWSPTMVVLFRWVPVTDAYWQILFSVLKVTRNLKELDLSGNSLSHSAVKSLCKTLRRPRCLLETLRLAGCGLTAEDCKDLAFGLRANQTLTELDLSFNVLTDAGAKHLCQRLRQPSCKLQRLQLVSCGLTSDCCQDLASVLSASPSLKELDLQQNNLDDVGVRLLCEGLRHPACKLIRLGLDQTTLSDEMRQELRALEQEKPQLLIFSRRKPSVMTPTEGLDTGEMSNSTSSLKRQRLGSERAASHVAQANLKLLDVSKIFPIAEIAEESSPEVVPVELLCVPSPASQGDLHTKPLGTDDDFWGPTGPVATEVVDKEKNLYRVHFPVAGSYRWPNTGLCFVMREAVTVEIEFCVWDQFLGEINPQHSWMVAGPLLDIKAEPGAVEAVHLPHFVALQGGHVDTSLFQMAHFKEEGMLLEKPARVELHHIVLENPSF
Chain of NACHT, LRR and PYD domains-containing protein 1 (Q9C000 1213-1473 limits assumed): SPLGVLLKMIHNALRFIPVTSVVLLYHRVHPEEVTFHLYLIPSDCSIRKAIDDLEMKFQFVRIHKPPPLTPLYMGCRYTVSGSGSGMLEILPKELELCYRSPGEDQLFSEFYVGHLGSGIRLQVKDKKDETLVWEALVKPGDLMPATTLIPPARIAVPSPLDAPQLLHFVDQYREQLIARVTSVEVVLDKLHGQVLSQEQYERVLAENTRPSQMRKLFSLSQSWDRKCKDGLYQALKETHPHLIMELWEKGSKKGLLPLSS

[4] = target: T1, Corticotropin-releasing factor receptor 2/Corticotropin-releasing factor-binding protein (Homo sapiens, UniProt P24387+Q13324); assay: activators of CRF receptor 2 with binding protein – uHTS hits, confirmation (AID 602473); format: functional; conditions: read-out: EC50_Mean
T1 sequence (Q13324 whole entry): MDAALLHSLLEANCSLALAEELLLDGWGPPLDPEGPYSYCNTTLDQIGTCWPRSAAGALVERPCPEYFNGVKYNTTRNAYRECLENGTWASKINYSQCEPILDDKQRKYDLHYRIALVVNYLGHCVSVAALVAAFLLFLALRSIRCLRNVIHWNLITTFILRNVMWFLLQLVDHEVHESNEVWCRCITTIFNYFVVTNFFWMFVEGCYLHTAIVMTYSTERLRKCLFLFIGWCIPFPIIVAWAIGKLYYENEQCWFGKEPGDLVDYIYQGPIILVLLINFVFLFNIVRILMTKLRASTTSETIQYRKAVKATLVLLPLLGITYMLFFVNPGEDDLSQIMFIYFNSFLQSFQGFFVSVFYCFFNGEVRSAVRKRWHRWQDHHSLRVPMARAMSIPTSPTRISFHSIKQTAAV
T1 sequence (P24387 whole entry): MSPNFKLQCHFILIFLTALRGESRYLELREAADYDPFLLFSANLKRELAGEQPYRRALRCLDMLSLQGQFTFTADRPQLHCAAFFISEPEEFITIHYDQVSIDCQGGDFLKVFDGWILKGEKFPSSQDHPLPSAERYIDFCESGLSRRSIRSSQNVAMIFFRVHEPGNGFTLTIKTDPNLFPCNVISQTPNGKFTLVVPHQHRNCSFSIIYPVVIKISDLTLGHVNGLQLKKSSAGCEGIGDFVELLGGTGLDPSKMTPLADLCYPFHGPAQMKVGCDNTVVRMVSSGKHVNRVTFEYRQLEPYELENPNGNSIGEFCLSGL

[5] = target: T2, Rac GTPase-activating protein 1 (Homo sapiens, UniProt Q9H0H5); assay: blockers of MgcRacGAP-driven Rac1 GTP hydrolysis – biochemical, ADP Hunter fluorescence, primary and confirmatory, confirmation (AID 624330); format: functional
T2 sequence (Q9H0H5 whole entry): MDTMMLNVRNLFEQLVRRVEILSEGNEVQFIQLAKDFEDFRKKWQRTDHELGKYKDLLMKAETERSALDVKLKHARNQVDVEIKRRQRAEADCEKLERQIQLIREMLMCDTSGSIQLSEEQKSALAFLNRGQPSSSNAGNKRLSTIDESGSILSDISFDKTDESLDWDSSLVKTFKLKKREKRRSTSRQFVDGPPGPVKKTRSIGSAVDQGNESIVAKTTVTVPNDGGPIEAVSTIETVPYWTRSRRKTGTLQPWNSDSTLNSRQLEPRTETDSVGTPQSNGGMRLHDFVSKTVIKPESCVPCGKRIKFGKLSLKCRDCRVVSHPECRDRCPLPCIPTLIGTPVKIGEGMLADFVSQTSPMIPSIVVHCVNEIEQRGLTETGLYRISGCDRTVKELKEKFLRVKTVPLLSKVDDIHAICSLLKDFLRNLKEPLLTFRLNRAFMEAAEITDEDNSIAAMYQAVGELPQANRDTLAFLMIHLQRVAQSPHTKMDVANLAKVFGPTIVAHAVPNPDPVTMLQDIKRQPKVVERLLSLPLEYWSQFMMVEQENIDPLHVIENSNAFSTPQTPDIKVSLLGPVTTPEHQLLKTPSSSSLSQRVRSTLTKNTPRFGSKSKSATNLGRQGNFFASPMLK

Hexokinase = Hexokinase (Trypanosoma brucei, UniProt Q38C41); assay: Confirmation assay for inhibitors of Trypanosoma brucei hexokinase 1-Analogue-first series. [Related pubchem assays (depositor defined):AID1430, AID1632, AID2516, AID2560, AID2579, AID2600, AID449725, AID492951]; format: functional
Chain of Hexokinase (Q38C41 whole entry): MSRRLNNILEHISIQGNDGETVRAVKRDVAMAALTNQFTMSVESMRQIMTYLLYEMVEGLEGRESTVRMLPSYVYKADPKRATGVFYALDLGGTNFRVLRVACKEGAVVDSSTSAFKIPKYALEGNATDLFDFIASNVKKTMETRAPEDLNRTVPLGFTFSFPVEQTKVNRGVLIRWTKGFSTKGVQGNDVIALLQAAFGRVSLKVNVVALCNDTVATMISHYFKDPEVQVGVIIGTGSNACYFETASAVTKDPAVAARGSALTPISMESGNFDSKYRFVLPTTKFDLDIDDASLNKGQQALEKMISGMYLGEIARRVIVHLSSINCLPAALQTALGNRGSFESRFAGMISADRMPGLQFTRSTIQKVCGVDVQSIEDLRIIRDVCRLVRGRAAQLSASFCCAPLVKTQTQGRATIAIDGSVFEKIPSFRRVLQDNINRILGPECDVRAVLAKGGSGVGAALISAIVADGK

[6] = target: Glucose-6-phosphate 1-dehydrogenase (Homo sapiens, UniProt P11413); assay: inhibition of Homo sapiens G6PD, dose series – biochemical, fluorescence, selectivity assay for P. falciparum G6PD inhibitor project, dose response (AID 504792); format: functional
Chain of Glucose-6-phosphate 1-dehydrogenase (P11413 whole entry): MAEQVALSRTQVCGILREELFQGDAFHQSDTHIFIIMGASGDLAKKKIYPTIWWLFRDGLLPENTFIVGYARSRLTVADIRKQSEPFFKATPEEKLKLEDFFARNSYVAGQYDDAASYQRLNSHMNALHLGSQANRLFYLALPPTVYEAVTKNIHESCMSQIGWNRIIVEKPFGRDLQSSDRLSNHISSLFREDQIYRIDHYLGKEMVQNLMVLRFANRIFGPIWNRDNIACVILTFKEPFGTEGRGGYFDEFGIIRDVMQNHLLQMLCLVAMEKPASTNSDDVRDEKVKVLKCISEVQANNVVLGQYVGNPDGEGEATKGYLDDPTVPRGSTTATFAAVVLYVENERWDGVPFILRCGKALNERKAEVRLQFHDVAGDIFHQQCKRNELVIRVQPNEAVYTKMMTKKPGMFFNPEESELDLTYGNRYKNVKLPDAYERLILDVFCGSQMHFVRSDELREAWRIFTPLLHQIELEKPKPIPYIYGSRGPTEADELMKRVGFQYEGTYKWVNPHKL

[7] = target: Intestinal-type alkaline phosphatase (Mus musculus, UniProt P24822); assay: PubChem AID 488874; format: functional
Chain of Intestinal-type alkaline phosphatase (Mus musculus, UniProt P24822) (P24822 whole entry): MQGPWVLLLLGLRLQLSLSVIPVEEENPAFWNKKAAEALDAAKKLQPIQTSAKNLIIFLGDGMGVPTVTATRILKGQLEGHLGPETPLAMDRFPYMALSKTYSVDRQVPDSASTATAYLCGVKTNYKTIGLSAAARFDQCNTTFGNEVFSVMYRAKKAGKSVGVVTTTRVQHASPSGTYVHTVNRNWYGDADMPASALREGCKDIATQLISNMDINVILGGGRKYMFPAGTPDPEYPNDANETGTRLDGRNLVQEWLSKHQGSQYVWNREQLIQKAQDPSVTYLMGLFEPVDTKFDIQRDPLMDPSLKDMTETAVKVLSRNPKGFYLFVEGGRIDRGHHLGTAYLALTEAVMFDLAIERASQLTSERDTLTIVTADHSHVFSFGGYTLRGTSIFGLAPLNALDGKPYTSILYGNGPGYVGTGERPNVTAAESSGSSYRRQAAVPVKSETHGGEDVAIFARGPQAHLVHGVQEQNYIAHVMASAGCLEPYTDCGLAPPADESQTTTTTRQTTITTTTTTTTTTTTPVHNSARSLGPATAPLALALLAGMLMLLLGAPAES

[8] = target: T3, Intestinal-type alkaline phosphatase (Homo sapiens, UniProt P09923); assay: activation of human intestinal alkaline phosphatase – biochemical, luminescent, uHTS hits, set 2, dose response (AID 488817); format: functional;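 further: potency of activators that raise enzyme activity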
T3 sequence (P09923 whole entry): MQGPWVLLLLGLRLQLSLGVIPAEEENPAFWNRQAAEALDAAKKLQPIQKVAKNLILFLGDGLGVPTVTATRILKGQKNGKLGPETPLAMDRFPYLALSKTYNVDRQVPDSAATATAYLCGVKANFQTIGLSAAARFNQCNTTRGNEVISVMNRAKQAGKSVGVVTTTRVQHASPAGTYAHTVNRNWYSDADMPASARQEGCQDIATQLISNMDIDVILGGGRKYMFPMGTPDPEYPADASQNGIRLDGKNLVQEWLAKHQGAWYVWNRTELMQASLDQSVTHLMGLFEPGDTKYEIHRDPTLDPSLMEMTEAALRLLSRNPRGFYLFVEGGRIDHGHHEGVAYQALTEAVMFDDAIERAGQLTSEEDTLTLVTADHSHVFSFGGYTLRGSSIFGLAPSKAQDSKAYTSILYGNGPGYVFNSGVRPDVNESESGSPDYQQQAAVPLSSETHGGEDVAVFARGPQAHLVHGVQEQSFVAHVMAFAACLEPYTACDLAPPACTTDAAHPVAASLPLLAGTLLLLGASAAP

[9] = target: T4, Alkaline phosphatase, tissue-nonspecific isozyme (Homo sapiens, UniProt P05186)
T4 sequence (P05186 whole entry): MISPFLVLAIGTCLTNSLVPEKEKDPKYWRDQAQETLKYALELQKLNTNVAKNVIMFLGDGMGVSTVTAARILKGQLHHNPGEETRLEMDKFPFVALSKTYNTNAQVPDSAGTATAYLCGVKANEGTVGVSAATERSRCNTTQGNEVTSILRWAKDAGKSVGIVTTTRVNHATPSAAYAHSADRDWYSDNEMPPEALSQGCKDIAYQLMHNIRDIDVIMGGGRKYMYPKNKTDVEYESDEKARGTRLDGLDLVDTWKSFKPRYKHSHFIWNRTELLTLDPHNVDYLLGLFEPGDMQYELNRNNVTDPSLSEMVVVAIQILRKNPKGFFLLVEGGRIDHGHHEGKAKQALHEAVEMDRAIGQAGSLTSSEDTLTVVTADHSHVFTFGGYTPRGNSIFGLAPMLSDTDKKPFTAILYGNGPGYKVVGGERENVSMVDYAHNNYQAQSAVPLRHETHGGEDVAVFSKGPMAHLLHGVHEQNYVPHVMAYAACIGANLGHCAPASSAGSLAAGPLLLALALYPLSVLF

[10] = target: T3, Intestinal-type alkaline phosphatase; assay: human intestinal alkaline phosphatase activators, dose response, biochemical, luminescence, uHTS hits (AID 463120); format: functional
[11] = target: T4, Alkaline phosphatase, tissue-nonspecific isozyme; assay: activation of tissue-nonspecific alkaline phosphatase – biochemical, TNAP isozyme, human IAP uHTS hits, selectivity assay for human IAP activator project, dose response (AID 488886); format: functional;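 further: potency of compounds raising TNAP activity as a selectivity check on IAP activators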

Compound: O=C(COc1ccccc1F)Nc1nnc(-c2ccc3ccccc3c2)o1
- EC50 [1]: 1.8 µM (active)

Compound: CCN(CC)c1ccc2nc3c4ccccc4c(=O)cc-3oc2c1 [NILE RED]
- EC50 [2]: < 500 nM (active)

Compound: COc1ccc(C2=C/C(=C/c3cccnc3)C(=O)O2)cc1OC
- IC50 (Saccharomyces cerevisiae): > 100 µM (inactive)
- IC50 [3]: > 100 µM (inactive)
- EC50 [4]: 3.91 µM (active)

Compound: O=C(Cn1sc2ccccc2c1=O)Nc1ccccc1
- IC50 [5]: 73.1 µM (active)
- IC50 (Hexokinase): 6.69 µM (active)
- IC50 [6]: 12.7 µM (active)

Compound: CC(C)C(=O)NC(=S)Nc1ccccc1C(=O)Nc1ccccc1
- IC50 [7]: 50 µM (active)
- EC50 [8]: 7.62 µM (active)
- EC50 [9]: > 100 µM (not active)
- EC50 [10]: 6.41 µM (active)
- EC50 [11]: 10.2 µM (active)

From ChEMBL document CHEMBL1201862, “PubChem BioAssay data set” (2004)
